1 molecule from ChEMBL document CHEMBL2074166, “Transport of fluorescein in MDCKII-MRP1 transfected cells and mrp1-knockout mice” (Biochem Biophys Res Commun, 2001) can be followed below.

In the series the target is Multidrug resistance-associated protein 1 (Homo sapiens, UniProt P33527). As to the kind of experiment: TP_TRANSPORTER: intracellular accumulation in MRP1-expressing MDCKII cells. The series is classed as functional, cell-based. The settings on record: dog, mdck-ii.
Sequence of Multidrug resistance-associated protein 1 (P33527 whole entry): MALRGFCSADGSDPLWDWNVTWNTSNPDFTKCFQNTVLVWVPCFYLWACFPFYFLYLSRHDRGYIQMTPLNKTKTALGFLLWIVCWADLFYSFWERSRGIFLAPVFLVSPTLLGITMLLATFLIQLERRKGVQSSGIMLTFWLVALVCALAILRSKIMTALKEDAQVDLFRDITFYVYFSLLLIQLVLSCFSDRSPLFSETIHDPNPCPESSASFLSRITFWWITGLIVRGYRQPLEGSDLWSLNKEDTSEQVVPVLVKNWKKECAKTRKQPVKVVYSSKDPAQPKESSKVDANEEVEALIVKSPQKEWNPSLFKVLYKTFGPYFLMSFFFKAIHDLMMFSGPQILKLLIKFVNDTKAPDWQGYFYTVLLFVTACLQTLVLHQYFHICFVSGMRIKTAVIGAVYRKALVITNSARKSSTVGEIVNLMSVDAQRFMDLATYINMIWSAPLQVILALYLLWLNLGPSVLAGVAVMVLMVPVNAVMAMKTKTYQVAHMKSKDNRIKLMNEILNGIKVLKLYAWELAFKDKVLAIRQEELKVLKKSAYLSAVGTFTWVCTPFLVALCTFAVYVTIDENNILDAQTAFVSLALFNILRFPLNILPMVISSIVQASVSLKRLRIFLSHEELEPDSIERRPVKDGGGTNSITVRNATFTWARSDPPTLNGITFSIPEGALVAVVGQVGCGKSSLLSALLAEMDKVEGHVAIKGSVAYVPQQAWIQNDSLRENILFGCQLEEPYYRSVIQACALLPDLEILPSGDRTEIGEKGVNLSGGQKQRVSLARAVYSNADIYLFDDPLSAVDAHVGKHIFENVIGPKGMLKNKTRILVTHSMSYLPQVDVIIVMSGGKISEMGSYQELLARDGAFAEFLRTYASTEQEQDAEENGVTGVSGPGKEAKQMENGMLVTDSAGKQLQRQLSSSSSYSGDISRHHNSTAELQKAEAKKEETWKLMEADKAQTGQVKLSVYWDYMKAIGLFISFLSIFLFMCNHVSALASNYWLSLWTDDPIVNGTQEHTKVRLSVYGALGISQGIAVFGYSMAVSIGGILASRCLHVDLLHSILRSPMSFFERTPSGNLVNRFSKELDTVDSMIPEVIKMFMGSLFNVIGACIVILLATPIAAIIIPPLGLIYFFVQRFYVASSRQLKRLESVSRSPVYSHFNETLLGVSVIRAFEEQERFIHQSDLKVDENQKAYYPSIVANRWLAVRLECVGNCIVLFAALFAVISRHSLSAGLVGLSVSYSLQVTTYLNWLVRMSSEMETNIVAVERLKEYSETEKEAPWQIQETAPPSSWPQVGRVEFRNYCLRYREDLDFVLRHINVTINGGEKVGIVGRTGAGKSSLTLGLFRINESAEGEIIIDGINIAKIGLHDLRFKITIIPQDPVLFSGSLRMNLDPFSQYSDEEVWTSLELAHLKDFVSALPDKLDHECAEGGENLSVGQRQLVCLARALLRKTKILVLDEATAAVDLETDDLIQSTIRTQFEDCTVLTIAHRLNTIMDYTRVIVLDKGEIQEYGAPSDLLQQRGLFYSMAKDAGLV

As to `O=C1OC2(c3ccc(O)cc3Oc3cc(O)ccc32)c2ccccc21` [FLUORESCEIN], the Activity result was “substrate [+]”.
